# Measurements published in patent US20200271654A1, “Quantifying MGMT Protein For Optimal Cancer Therapy” (Expression Pathology, Inc., priority 2017, published 2020).
# System: advanced colorectal cancer (CRC)
# Assay: Survival of advanced colorectal cancer patients treated with temozolomide, stratified by tumor MGMT protein level (SRM mass spectrometry)
# Assay type: in vivo
# Conditions: for median progression-free survival (PFS): treated with temozolomide
# Excerpt: 24 patients from Fondazione IRCCS Istituto Nazionale dei TumoriVia Venezian, Milan, Italy, were identified with advanced colorectal cancer (CRC). Tumors were surgically removed prior to treatment and archived as formalin-fixed, paraffin-embedded (FFPE) tissue and all were histologically colorectal cancer. All 24 patients were subsequently treated with temozolomide.
# Archived formalin-fixed, paraffin-embedded tissue sections were obtained from patients with advanced CRC treated with temozolomide (n=24). A board-certified pathologist marked the tumor areas. Based on the markups, tumor cells were laser microdissected and solubilized to tryptic peptides using the Liquid Tissue process. In each liquefied sample, multiple protein biomarkers including MGMT were quantified by selected reaction monitoring (SRM) mass spectrometry (MS). A mixture of stable isotope-labeled heavy peptides including the MGMT fragment peptide TTLDSPLGK was added prior to MS analysis. Each sample was analyzed in triplicate. […] The Mantel-Cox log-rank and Gehan-Breslow-Wilcoxon tests were used for survival comparisons.
structure (smiles),measurement,setting,value
Cn1nnc2c(C(N)=O)ncn2c1=O [temozolomide],median progression-free survival (PFS),CRC patients with MGMT levels above cutoff of 200 amol/μg,1.6 months
same,median progression-free survival (PFS),"CRC patients with MGMT protein levels below cutoff of 200 amol/μg (n=11), p=0.0611 vs above cutoff",4.3 months
same,"ratio of median progression-free survival, MGMT below cutoff vs above cutoff","cutoff 200 amol/μg, temozolomide-treated CRC patients",approximately 2.5 times
